In patent US20210275418A1, “Personal Care Compositions” (Colgate-Palmolive Company, priority 2020, published 2021):

Experiments:
Format in all cases: biochemical
[1] = target: T1, elastase (Homo sapiens, UniProt P08246); assay: Elastase inhibition, elastase inhibitor screening kit (Sigma Aldrich MAK 213 Kit); conditions: Table 3, Example 7
T1 construct: purchased Sigma Aldrich MAK 213 Kit
T1 sequence (P08246 30-267): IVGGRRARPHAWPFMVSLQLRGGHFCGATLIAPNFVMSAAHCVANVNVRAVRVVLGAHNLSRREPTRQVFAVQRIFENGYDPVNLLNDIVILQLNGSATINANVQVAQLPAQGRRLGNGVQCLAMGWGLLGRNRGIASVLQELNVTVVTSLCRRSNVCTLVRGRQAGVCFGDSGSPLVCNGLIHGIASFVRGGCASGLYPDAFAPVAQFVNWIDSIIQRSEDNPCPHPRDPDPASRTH
Experimental: (§1) The anti-elastase activity of an exemplary composition of the present invention was compared to the anti-elastase activity of individual short chain fatty acids. Assays were performed using an elastase inhibitor screening kit from Sigma Aldrich (MAK 213 Kit); and following the manufacturer's protocol. The results of these experiments are described in Table 3 (below).

[2] = system: collagenase; assay: Collagenase inhibition, collagenase inhibitor screening kit (Sigma Aldrich MAK 293 Kit)
Experimental: (§2) A study of collagenase inhibition is conducted (e.g., Sigma Aldrich MAK 293 Kit) to investigate the was conducted to investigate the efficacy of an exemplary composition of the present invention (1.25% lactic acid; 0.625% mandelic acid; and 0.312% pyruvic acid) and individual short chain fatty acids, at the same concentrations.
as §2, with “mandelic acid and” for “lactic acid;”, “0.625%” for “0.625% mandelic acid; and 0.312%”
as §1, with “anti-collagenase” for “anti-elastase”, “a collagenase” for “an elastase”, “293” for “213”, “2” for “3”
as §1, with “anti-collagenase” for “anti-elastase”, “a collagenase” for “an elastase”, “293” for “213”, “5” for “3”

[3] = system: tyrosinase; assay: Tyrosinase inhibition, tyrosinase inhibitor screening kit (Sigma Aldrich MAK 257 Kit)
Experimental: A study of tyrosinase inhibition is conducted (e.g., Sigma Aldrich MAK 257 Kit) to investigate the efficacy of an exemplary composition of the present invention (0.312% lactic acid; 0.156% mandelic acid; and 0.078% pyruvic acid) and individual short chain fatty acids at the same concentrations.
A study of tyrosinase inhibition is conducted (e.g., Sigma Aldrich MAK 257 Kit) to investigate the efficacy of an exemplary composition of the present invention (0.312% mandelic acid and 0.156% pyruvic acid) and individual short chain fatty acids at the same concentrations.
as §1, with “anti-tyrosinase” for “anti-elastase”, “a tyrosinase” for “an elastase”, “257” for “213”, “1” for “3”
as §1, with “anti-tyrosinase” for “anti-elastase”, “a tyrosinase” for “an elastase”, “257” for “213”, “4” for “3”
Peels were diluted 1000× in buffer to prepare 0.1% working stock. The working stock was serially diluted 2× to test the peels at five doses (0.1 wt. %, 0.05 wt. %, 0.025 wt. %, 0.0125 wt. % and 0.00625 wt. %). The pH of all test samples and dilutions was measured before and after tyrosinase assay to exclude any effect of acid on the enzyme activity. The assay was performed using a commercial kit following manufacturer's protocol (e.g., MAK 257 Kit from Sigma Aldrich). LMP peels containing various concentrations of pyruvic acid at pH 2.5 (“R1 Peels”); LMP peels which were identically formulated to the R1 Peels, but with pH buffered to 3.6 (“R2 Peels”); and LMP′ peels which were identically formulated to the R2 Peels, other than the replacement of pyruvic acid with sodium pyruvate (“R3 Peels”), were all evaluated.

For `CC(O)C(=O)O` (centres unmarked) [Lactic Acid (L), lactic acid], the “% Elastase Inhibition” value ([1]; 0.625 wt. %) was 44.89%, the “% Collagenase Inhibition” value ([2]; Table 2, Example 6, 1.25 wt. %) was 40.32% and the “% Collagenase Inhibition” value ([2]; Table 5, Example 9, 1.25 wt. %) was 12.71%. For the same compound, the “% Collagenase Inhibition” value ([2]; Table B, Example 2, 1.25 wt. %) was 12.71%, the “% Tyrosinase Inhibition” value ([3]; Table 1, Example 5, 0.312 wt. %) was 52.72% and the “% Tyrosinase Inhibition” value ([3]; Table 4, Example 8, 0.312 wt. %) was 1.23%. The “% Tyrosinase Inhibition” value ([3]; Table A, Example 1, 0.312 wt. %) was 2.23%.

`O=C(O)C(O)c1ccccc1` (centres unmarked) [Mandelic Acid (M), mandelic acid] was tested, and the “% Collagenase Inhibition” value ([2]; Table 5, Example 9, 0.625 wt. %) was 8.57%, the “% Collagenase Inhibition” value ([2]; Table B, Example 2, 0.625 wt. %) was 8.57% and the “% Collagenase Inhibition” value ([2]; Table D, Example 4, 1.25 wt. %) was 11.26%. For the same compound, the “% Tyrosinase Inhibition” value ([3]; Table 4, Example 8, 0.156 wt. %) was 0.06%, the “% Tyrosinase Inhibition” value ([3]; Table A, Example 1, 0.156 wt. %) was 0.06% and the “% Tyrosinase Inhibition” value ([3]; Table C, Example 3, 0.312 wt. %) was 1.17%.

`CC(=O)C(=O)O` [Pyruvic Acid (P), pyruvic acid] was tested, and the “% Elastase Inhibition” value ([1]; 0.156 wt. %) was 20.21%, the “% Collagenase Inhibition” value ([2]; Table 2, Example 6, 0.312 wt. %) was 8.79% and the “% Collagenase Inhibition” value ([2]; Table B, Example 2, 0.312 wt. %) was 6.70%. For the same compound, the “% Collagenase Inhibition” value ([2]; Table D, Example 4, 0.625 wt. %) was 9.58%, the “% Tyrosinase Inhibition” value ([3]; Table 1, Example 5, 0.078 wt. %) was 29.29% and the “% Tyrosinase Inhibition” value ([3]; Table A, Example 1, 0.078 wt. %) was 0.37%. For the same compound, the “% Tyrosinase Inhibition” value ([3]; Table C, Example 3, 0.156 wt. %) was 26.62%.
